Consider five molecules from paper PMC3145970, “Specific CLK Inhibitors from a Novel Chemotype for Regulation of Alternative Splicing” (Chemistry & Biology, 2011).

What all share (test): Thermal stability shift assay
Type in all cases: binding

One assay addresses T1, GAK (Homo sapiens, UniProt O14976).
T1 construct: purchased in-house (SGC Oxford thermal shift panel)
T1 sequence (O14976 1-1311): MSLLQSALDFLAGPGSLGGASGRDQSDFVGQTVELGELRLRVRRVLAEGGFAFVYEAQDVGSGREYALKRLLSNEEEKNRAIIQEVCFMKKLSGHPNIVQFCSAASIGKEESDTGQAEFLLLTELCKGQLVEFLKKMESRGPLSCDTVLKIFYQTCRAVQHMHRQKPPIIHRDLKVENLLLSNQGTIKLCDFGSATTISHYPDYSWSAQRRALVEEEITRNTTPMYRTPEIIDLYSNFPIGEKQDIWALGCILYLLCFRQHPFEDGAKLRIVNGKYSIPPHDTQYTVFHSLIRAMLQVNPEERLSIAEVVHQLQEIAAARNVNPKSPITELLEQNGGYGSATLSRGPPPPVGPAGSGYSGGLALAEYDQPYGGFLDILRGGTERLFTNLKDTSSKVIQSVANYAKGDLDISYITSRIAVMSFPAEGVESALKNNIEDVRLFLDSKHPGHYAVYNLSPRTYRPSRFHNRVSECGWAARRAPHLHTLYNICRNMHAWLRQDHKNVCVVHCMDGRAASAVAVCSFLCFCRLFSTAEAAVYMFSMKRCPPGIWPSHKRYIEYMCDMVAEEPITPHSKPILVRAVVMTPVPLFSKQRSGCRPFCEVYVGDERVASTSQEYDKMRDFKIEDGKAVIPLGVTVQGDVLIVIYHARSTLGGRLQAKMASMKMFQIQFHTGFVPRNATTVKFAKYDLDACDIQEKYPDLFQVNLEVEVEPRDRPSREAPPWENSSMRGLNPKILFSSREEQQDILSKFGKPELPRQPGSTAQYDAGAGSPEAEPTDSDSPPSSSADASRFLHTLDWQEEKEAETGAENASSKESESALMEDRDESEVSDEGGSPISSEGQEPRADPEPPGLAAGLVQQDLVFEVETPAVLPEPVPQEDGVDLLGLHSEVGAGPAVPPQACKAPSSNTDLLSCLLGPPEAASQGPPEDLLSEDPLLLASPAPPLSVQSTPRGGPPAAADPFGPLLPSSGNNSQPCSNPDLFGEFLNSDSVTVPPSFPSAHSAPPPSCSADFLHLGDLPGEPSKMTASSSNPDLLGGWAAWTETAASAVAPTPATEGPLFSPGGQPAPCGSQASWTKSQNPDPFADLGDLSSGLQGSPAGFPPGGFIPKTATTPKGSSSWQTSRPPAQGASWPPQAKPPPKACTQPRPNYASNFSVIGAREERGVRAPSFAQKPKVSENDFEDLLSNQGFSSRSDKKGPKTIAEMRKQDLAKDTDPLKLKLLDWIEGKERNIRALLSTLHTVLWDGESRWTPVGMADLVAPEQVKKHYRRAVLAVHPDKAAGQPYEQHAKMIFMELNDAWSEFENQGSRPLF
The following applies: read-out: Tm shift GAK. An outline of the steps: (§1)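 2 μM protein + 10 μM inhibitor; 10 mM HEPES pH 7.5, 500 mM NaCl, SyproOrange 1:1000; melt in qPCR cycler, dye fluorescence monitored.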

For another assay, the target named is PKN2 (Homo sapiens, UniProt Q16513). Particulars: read-out: Tm shift PKN2. In outline: as §1
PKN2, sequence (Q16513 whole entry): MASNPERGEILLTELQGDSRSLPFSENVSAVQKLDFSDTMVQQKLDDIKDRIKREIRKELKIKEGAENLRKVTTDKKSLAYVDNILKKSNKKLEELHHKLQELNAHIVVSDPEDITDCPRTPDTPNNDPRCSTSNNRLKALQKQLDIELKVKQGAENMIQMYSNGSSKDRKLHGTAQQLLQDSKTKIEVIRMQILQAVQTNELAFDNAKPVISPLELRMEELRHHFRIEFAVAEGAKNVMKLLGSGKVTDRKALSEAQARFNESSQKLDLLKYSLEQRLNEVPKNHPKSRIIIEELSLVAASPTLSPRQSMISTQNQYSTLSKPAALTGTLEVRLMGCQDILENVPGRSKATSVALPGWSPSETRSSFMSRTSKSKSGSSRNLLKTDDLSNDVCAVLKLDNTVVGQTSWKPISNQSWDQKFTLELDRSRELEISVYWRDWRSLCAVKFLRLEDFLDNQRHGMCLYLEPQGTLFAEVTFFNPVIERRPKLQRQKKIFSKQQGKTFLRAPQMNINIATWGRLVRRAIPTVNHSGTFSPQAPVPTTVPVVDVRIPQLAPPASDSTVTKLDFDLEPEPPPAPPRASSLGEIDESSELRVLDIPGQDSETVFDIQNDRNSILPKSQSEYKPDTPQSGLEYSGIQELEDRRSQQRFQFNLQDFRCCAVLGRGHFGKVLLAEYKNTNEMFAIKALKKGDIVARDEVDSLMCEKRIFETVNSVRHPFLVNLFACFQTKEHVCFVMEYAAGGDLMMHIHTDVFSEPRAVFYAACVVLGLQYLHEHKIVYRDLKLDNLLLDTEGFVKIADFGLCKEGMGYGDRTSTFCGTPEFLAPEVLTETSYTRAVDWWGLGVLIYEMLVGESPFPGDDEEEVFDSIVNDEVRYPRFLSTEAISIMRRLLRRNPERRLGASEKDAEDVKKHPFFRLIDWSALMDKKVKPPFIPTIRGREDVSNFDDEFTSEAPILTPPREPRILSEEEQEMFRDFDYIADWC
A further assay addresses YSK1 (Homo sapiens, UniProt O00506). Particulars: read-out: Tm shift YSK1. An outline of the steps: as §1
A further assay has as its target PKACa (Homo sapiens, UniProt P17612). Particulars: read-out: Tm shift PKACa. An outline of the steps: as §1
The next assay deals with T2, TTK (Homo sapiens, UniProt P33981).
T2 sequence (P33981 1-857): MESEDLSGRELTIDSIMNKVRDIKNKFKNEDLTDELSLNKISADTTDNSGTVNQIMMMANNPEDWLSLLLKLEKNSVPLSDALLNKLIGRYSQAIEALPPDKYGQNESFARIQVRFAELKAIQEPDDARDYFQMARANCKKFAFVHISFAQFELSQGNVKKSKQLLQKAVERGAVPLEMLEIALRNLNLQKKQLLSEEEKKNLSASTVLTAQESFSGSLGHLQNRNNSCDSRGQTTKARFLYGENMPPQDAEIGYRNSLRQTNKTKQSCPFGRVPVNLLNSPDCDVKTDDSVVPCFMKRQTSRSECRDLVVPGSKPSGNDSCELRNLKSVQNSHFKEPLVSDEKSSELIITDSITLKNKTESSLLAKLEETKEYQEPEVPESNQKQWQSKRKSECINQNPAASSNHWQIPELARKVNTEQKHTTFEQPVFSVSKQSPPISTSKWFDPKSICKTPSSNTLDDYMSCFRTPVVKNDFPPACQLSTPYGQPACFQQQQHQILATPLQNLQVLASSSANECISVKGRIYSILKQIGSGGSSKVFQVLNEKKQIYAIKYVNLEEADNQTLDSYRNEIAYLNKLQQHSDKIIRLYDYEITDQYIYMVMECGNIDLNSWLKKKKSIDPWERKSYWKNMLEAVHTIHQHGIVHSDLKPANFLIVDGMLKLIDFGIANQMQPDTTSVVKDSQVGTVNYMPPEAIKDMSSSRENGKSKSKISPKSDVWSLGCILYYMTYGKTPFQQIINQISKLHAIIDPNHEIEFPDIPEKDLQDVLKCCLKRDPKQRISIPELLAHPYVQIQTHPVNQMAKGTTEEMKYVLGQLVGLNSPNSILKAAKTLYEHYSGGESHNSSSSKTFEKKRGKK
Particulars: read-out: Tm shift TTK. An outline of the steps:
as §1

Read-outs that look alike come from different tables or passages of the source.

YSK1, sequence (O00506 whole entry): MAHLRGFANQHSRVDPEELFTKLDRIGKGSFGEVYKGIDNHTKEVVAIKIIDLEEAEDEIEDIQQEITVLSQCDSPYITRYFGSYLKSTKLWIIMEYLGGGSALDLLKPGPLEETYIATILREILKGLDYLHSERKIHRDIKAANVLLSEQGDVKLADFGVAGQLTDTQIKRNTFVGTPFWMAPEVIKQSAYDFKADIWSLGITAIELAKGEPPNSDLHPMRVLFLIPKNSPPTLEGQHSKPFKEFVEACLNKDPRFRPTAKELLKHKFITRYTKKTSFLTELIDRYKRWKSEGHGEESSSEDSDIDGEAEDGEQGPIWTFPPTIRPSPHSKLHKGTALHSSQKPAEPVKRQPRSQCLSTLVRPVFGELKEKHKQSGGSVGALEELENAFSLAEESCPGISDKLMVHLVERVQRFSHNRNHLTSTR

With `Cn1c2c(Cl)c(Cl)ccc2c2c(C#N)c[nH]c(=O)c21` [compound 3, 7,8-Dichloro-9-Methyl-1-Oxo-2,9-Dihydro-1H-Pyrido[3,4-b]Indole-4-Carbonitrile], the ΔTm at 10 µM on GAK (inhibitor 10 μM) was determined as 0.8 °C; at PKN2 (inhibitor 10 μM) it was 2.3 °C; at YSK1 (inhibitor 10 μM) it was 0.2 °C; on PKACa (inhibitor 10 μM), 0.4 °C; at TTK (inhibitor 10 μM), 1.8 °C.

Take `CCOC(=O)c1c(C(C#N)=CN)c2ccc(Cl)c(Cl)c2n1C` (mixture of isomers) [KH-CB20, (E/Z)-Ethyl 3-(2-Amino-1-Cyanovinyl)-6,7-Dichloro-1-Methyl-1H-Indole-2-Carboxylate]: the ΔTm at 10 µM on GAK was determined as 0.8 °C; on PKN2, 0.1 °C; on YSK1 it was 0.1 °C; on PKACa, 0.3 °C; at TTK, 0.3 °C.

Regarding `NC1=NC(=O)/C(=C2\CCNC(=O)c3[nH]c(Br)cc32)N1` [Hymenialdisine, hymenialdisine, reference compound], the ΔTm at 10 µM on GAK (inhibitor 10 μM) stood at 3.8 °C; on PKN2 (inhibitor 10 μM), 0.8 °C; at YSK1 (inhibitor 10 μM), 1.7 °C; on PKACa (inhibitor 10 μM), 0.8 °C; on TTK (inhibitor 10 μM) it was 0.7 °C.

On to `CCOC(=O)c1c(/C(C#N)=C\N)c2ccc(Cl)c(Cl)c2n1C` [KH-CB19, (E)-Ethyl 3-(2-Amino-1-Cyanovinyl)-6,7-Dichloro-1-Methyl-1H-Indole-2-Carboxylate], for which the ΔTm at 10 µM is 0.4 °C on GAK; 0.6 °C at PKN2; -0.1 °C at YSK1; 0 °C at PKACa; 0.5 °C on TTK.

`CCOC(=O)c1c(C(C#N)=CN(C)C)c2ccc(Cl)c(Cl)c2n1C` (mixture of isomers) [compound 2, (E/Z)-Ethyl 6,7-Dichloro-3-[1-Cyano-2-(Dimethylamino)Vinyl]-1-Methyl-1H-Indole-2-Carboxylate]: the ΔTm at 10 µM on GAK (inhibitor 10 μM) is 0.4 °C; on PKN2 (inhibitor 10 μM), -0.5 °C; at YSK1 (inhibitor 10 μM), 0.6 °C; at PKACa (inhibitor 10 μM) it was 0.2 °C; at TTK (inhibitor 10 μM), -0.1 °C.
